Results: patent publication US20220016098A1, “ORALLY ADMINISTERED PHARMACEUTICAL COMPOSITION COMPRISING FAB I INHIBITORS AND METHOD FOR PREPARING SAME” (priority 2018, published 2022)
In brackets after ≈: the same amount, converted by molar mass. Where two headings read alike, the source gives them in different places.

Tests used:
[1] = tested on: MRSA strains (methicillin-resistant Staphylococcus aureus); experiment: MIC test on MRSA clinical isolates; format: cell-based; details: for MIC: Staphylococcus aureus, MRSA, read-out: MIC60
Description: In order to verify the inhibitory effect of the compound of formula 1 on antibiotic-resistant strains, drug susceptibility was evaluated by treating the compound of formula 1 with Staphylococcus aureus phenotype isolated from each patient. […] Appelbaum at Hershey Hospital, who is recognized for its authority in the field of anti-infection worldwide, and about 100 MRSA strains which is currently socially problematic.

[2] = tested on: Staphylococcus aureus ATCC 29213 (MSSA, standard strain); experiment: Susceptibility test (MIC), standard strain; format: cell-based
[3] = tested on: Staphylococcus aureus 13B-382 (MRSA, clinical strain); experiment: Susceptibility test (MIC), clinical strain; format: cell-based
[4] = Solubility of the compound of formula 1 in various solvents (HPLC); format: physicochemical; details: thermodynamic from solid
Description: Prior to preparing the salt of the compound of formula 1, the compound of formula 1 was analyzed to determine the solubility in various solvents. First, the compound of formula 1 was supersaturated in a pharmaceutically acceptable solvent as shown in Table 5 and stirred in a dark room at room temperature for 12 hours. It was first centrifuged to take a supernatant, and then again filtered with a 0.25 μm PVDF filter to remove insoluble materials remaining in the solution. The filtrate was diluted with methanol and then subjected to HPLC analysis to quantify the solubility. In addition, HPLC analysis conditions are as follows.
20 μL of each of the test solution and the standard solution were tested according to a liquid chromatography method (HPLC) of general test methods of the Korean Pharmacopoeia under the following conditions, and the peak area of the main component of each solution was measured.
Detector: UV spectrophotometer (measurement wavelength 286 nm)
Column: Aegispak C18-L (4.6 mm×250 mm, 5 μm) column
Column temperature: 25° C.
Mobile phase: Acetonitrile:water=3:2

[5] = Solubility in distilled water (Experimental Example 6); format: physicochemical
Description: First, an excess of each substance was added to distilled water and mixed at room temperature for 12 hours. After standing for 2 hours to take the supernatant, it was filtered using a filter having 0.25 μm pores. After diluting this in methanol again, HPLC analysis was performed.

CC[C@H]1OC(=O)[C@H](C)[C@@H](O[C@H]2C[C@@](C)(OC)[C@@H](O)[C@H](C)O2)[C@H](C)[C@@H](O[C@@H]2O[C@H](C)C[C@H](N(C)C)[C@H]2O)[C@](C)(O)C[C@@H](C)CN(C)[C@H](C)[C@@H](O)[C@]1(C)O [Azithromycin]
MIC ([1]; Methicillin-resistant, n = 100): > 64 µg/mL

CCCCCCCCCC(=O)N[C@@H](Cc1c[nH]c2ccccc12)C(=O)N[C@H](CC(N)=O)C(=O)N[C@@H](CC(=O)O)C(=O)N[C@@H]1C(=O)NCC(=O)N[C@@H](CCCN)C(=O)N[C@@H](CC(=O)O)C(=O)N[C@H](C)C(=O)N[C@@H](CC(=O)O)C(=O)NCC(=O)N[C@H](CO)C(=O)N[C@@H]([C@H](C)CC(=O)O)C(=O)N[C@@H](CC(=O)c2ccccc2N)C(=O)O[C@@H]1C [Daptomycin]
MIC ([1]; Methicillin-resistant, n = 100): 0.5 µg/mL (≈ 0.309 µM)

C[C@H]1COc2c(N3CCN(C)CC3)c(F)cc3c(=O)c(C(=O)O)cn1c23 [Levofloxacin]
MIC ([1]; Methicillin-resistant, n = 100): 1 µg/mL (≈ 2.77 µM)

CC(=O)NC[C@H]1CN(c2ccc(N3CCOCC3)c(F)c2)C(=O)O1 [Linezolid]
MIC ([1]; Methicillin-resistant, n = 100): 1 µg/mL (≈ 2.96 µM)

CN[C@H](CC(C)C)C(=O)N[C@H]1C(=O)N[C@@H](CC(N)=O)C(=O)N[C@H]2C(=O)N[C@H]3C(=O)N[C@H](C(=O)N[C@H](C(=O)O)c4cc(O)cc(O)c4-c4cc3ccc4O)[C@H](O)c3ccc(c(Cl)c3)Oc3cc2cc(c3O[C@@H]2O[C@H](CO)[C@@H](O)[C@H](O)[C@H]2O[C@H]2C[C@](C)(N)[C@H](O)[C@H](C)O2)Oc2ccc(cc2Cl)[C@H]1O [Vancomycin]
MIC [1]: 1 µg/mL (≈ 0.69 µM) | MIC [2]: 0.5 µg/mL (≈ 0.345 µM) | MIC [3]: 1 µg/mL (≈ 0.69 µM)

Cc1c(N)cccc1Cn1ccc(OCCc2cccs2)cc1=O [compound of formula 1, 1-(3-amino-2-methylbenzyl)-4-(2-thiophen-2-yl-ethoxy)-1H-pyridin-2-one]
solubility at 12 h ([4]; PEG 300, organic solvent or mixture, PEG 300, room temperature, read-out: Solubility): 22000 µg/mL | solubility at 12 h ([4]; dichloromethane, organic solvent or mixture, Dichloromethane, room temperature, read-out: Solubility): > 50000 µg/mL | solubility at 12 h ([4]; methanol, organic solvent or mixture, Methanol, room temperature, read-out: Solubility): < 10000 µg/mL | solubility at 12 h ([4]; pH 1.2 aqueous solution, pH 1.2, simulated gastric fluid, pH 1.2 aqueous solution, room temperature, read-out: Solubility): ~900 µg/mL | solubility at 12 h ([4]; water, Water, room temperature, read-out: Solubility): 2 µg/mL | solubility at 12 h ([4]; water, distilled water / water (neutral), read-out: Solubility in water): 2.5 µg/mL | pH ([5]; of the solubility test in distilled water): 6.8 | solubility at 12 h ([5]; pH 6.8, thermodynamic from solid, distilled water, room temperature, 12 hours): 2.5 µg/mL

Teicoplanin
MIC60 ([1]; Methicillin-resistant, n = 100): 1.0 µg/mL
